According to PubChem BioAssay (NCI):
Several values for one entry are separate records, joined by “and”; a condition that tells them apart may be missing. Equal entries are not always repeated.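 Five concentrations, 48 hours, 96-well plates. Here, GI50 denotes the concentration required for 50% inhibition of growth. At the TGI there is no net growth.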

How the values were obtained:
Assay in all cases: growth of human tumour cells (NCI), 48 h
M14 melanoma = system: M14 melanoma
SF-295 CNS = system: SF-295 CNS
SK-MEL-28 melanoma = system: SK-MEL-28 melanoma
BT-549 breast = system: BT-549 breast
SN12C renal = system: SN12C renal
MDA-MB-435 = system: MDA-MB-435
IGROV1 ovarian = system: IGROV1 ovarian
HS 578T breast = system: HS 578T breast
HOP-92 NSCLC = system: HOP-92 NSCLC
HL-60(TB) leukemia = system: HL-60(TB) leukemia
HCT-15 colon = system: HCT-15 colon
COLO 205 colon = system: COLO 205 colon
MALME-3M melanoma = system: MALME-3M melanoma
T-47D breast = system: T-47D breast
SK-MEL-2 melanoma = system: SK-MEL-2 melanoma
SF-268 CNS = system: SF-268 CNS
NCI/ADR-RES ovarian = system: NCI/ADR-RES ovarian
K-562 leukemia = system: K-562 leukemia
ACHN renal = system: ACHN renal
OVCAR-5 ovarian = system: OVCAR-5 ovarian
MDA-MB-231 breast = system: MDA-MB-231 breast
HT29 colon = system: HT29 colon
TK-10 renal = system: TK-10 renal
SNB-75 CNS = system: SNB-75 CNS
SK-MEL-5 melanoma = system: SK-MEL-5 melanoma
DU-145 prostate = system: DU-145 prostate
PC-3 prostate = system: PC-3 prostate
MOLT-4 leukemia = system: MOLT-4 leukemia
UACC-257 melanoma = system: UACC-257 melanoma
SR leukemia = system: SR leukemia
NCI-H23 lung = system: NCI-H23 lung
NCI-H226 lung = system: NCI-H226 lung
NCI-H460 lung = system: NCI-H460 lung
HCC-2998 colon = system: HCC-2998 colon
SK-OV-3 ovarian = system: SK-OV-3 ovarian
HOP-62 NSCLC = system: HOP-62 NSCLC
A498 renal = system: A498 renal
SF-539 CNS = system: SF-539 CNS
OVCAR-8 ovarian = system: OVCAR-8 ovarian
EKVX NSCLC = system: EKVX NSCLC
OVCAR-4 ovarian = system: OVCAR-4 ovarian
SW-620 colon = system: SW-620 colon
U251 CNS = system: U251 CNS
UO-31 renal = system: UO-31 renal
A549 NSCLC = system: A549 NSCLC
CCRF-CEM leukemia = system: CCRF-CEM leukemia
CAKI-1 renal = system: CAKI-1 renal
MCF7 breast = system: MCF7 breast
OVCAR-3 ovarian = system: OVCAR-3 ovarian
UACC-62 melanoma = system: UACC-62 melanoma
LOX IMVI melanoma = system: LOX IMVI melanoma
NCI-H522 lung = system: NCI-H522 lung
RPMI-8226 leukemia = system: RPMI-8226 leukemia
RXF 393 renal = system: RXF 393 renal
KM12 colon = system: KM12 colon
786-0 renal = system: 786-0 renal
SNB-19 CNS = system: SNB-19 CNS
HCT-116 colon = system: HCT-116 colon

What does the source list for `O=C(Cn1c(=O)oc2ccc(C(=O)c3cccc(Cl)c3)cc21)c1ccccc1`?
TGI (M14 melanoma): > 100000 nM; TGI (SF-295 CNS): > 100000 nM; TGI (SK-MEL-28 melanoma): > 100000 nM; TGI (BT-549 breast): > 100000 nM; TGI (SN12C renal): > 100000 nM; TGI (MDA-MB-435): > 100000 nM; TGI (IGROV1 ovarian): > 100000 nM; TGI (HS 578T breast): > 100000 nM; TGI (HOP-92 NSCLC): > 100000 nM; TGI (HL-60(TB) leukemia): > 100000 nM; TGI (HCT-15 colon): > 100000 nM; TGI (COLO 205 colon): > 100000 nM; TGI (MALME-3M melanoma): > 100000 nM; TGI (T-47D breast): > 100000 nM; TGI (SK-MEL-2 melanoma): > 100000 nM; TGI (SF-268 CNS): > 100000 nM; TGI (NCI/ADR-RES ovarian): > 100000 nM; TGI (K-562 leukemia): > 100000 nM; TGI (ACHN renal): > 100000 nM; TGI (OVCAR-5 ovarian): > 100000 nM; TGI (MDA-MB-231 breast): > 100000 nM; TGI (HT29 colon): > 100000 nM; TGI (TK-10 renal): > 100000 nM; TGI (SNB-75 CNS): > 100000 nM; TGI (SK-MEL-5 melanoma): > 100000 nM; TGI (DU-145 prostate): > 100000 nM; TGI (PC-3 prostate): > 100000 nM; TGI (MOLT-4 leukemia): > 100000 nM; TGI (UACC-257 melanoma): > 100000 nM; TGI (SR leukemia): > 100000 nM; TGI (NCI-H23 lung): > 100000 nM; TGI (NCI-H226 lung): > 100000 nM; TGI (NCI-H460 lung): > 100000 nM; TGI (HCC-2998 colon): 78600 nM; TGI (SK-OV-3 ovarian): > 100000 nM; TGI (HOP-62 NSCLC): > 100000 nM; TGI (A498 renal): 95800 nM; TGI (SF-539 CNS): > 100000 nM; TGI (OVCAR-8 ovarian): > 100000 nM; TGI (EKVX NSCLC): > 100000 nM; TGI (OVCAR-4 ovarian): > 100000 nM; TGI (SW-620 colon): > 100000 nM; TGI (U251 CNS): > 100000 nM; TGI (UO-31 renal): > 100000 nM; TGI (A549 NSCLC): > 100000 nM; TGI (CCRF-CEM leukemia): > 100000 nM; TGI (CAKI-1 renal): > 100000 nM; TGI (MCF7 breast): > 100000 nM; TGI (OVCAR-3 ovarian): > 100000 nM; TGI (UACC-62 melanoma): > 100000 nM; TGI (LOX IMVI melanoma): > 100000 nM; TGI (NCI-H522 lung): > 100000 nM; TGI (RPMI-8226 leukemia): > 100000 nM

What does the source list for `C=Cc1cc(OC)c2c(c1)c(=O)oc1c2cc(OC)c2c(O)ccc(C3OC(C(C)O)C(O)C3O)c21` (stereo unspecified)?
GI50 (M14 melanoma): 11 nM; TGI (M14 melanoma): 30.2 nM; GI50 (SF-295 CNS): 3.66 nM; TGI (SF-295 CNS): 43.1 nM; GI50 (SK-MEL-28 melanoma): 22.5 nM; TGI (SK-MEL-28 melanoma): 52.5 nM; GI50 (BT-549 breast): 7.69 nM; TGI (BT-549 breast): 39.1 nM; GI50 (RXF 393 renal): 1.81 nM; TGI (RXF 393 renal): 3.84 nM; GI50 (SN12C renal): 22.9 nM; TGI (SN12C renal): 172 nM; GI50 (MDA-MB-435): 14.5 nM; TGI (MDA-MB-435): 33.7 nM; GI50 (IGROV1 ovarian): 3.4 nM; TGI (IGROV1 ovarian): 104 nM; GI50 (HS 578T breast): 19.1 nM; TGI (HS 578T breast): 61.7 nM; GI50 (HOP-92 NSCLC): 12.6 nM; TGI (HOP-92 NSCLC): 300 nM; GI50 (HL-60(TB) leukemia): 2.16 nM; TGI (HL-60(TB) leukemia): 19.7 nM; GI50 (COLO 205 colon): 11.3 nM; TGI (COLO 205 colon): 102 nM; GI50 (KM12 colon): 6.74 nM; TGI (KM12 colon): 49.9 nM; GI50 (MALME-3M melanoma): 10.7 nM; TGI (MALME-3M melanoma): 36.6 nM; GI50 (T-47D breast): 8.12 nM; TGI (T-47D breast): 80 nM; GI50 (SF-268 CNS): 4.56 nM; TGI (SF-268 CNS): 117 nM; GI50 (786-0 renal): 3.36 nM; TGI (786-0 renal): 19.2 nM; GI50 (NCI/ADR-RES ovarian): 12 nM; TGI (NCI/ADR-RES ovarian): 271 nM; GI50 (K-562 leukemia): 3.55 nM; TGI (K-562 leukemia): 126 nM; GI50 (OVCAR-5 ovarian): 3.09 nM; TGI (OVCAR-5 ovarian): 96.9 nM; GI50 (MDA-MB-231 breast): 43.8 nM; TGI (MDA-MB-231 breast): > 1000 nM; GI50 (HT29 colon): 6.66 nM; TGI (HT29 colon): > 1000 nM; GI50 (TK-10 renal): 22.3 nM; TGI (TK-10 renal): 318 nM; GI50 (SNB-75 CNS): 15.7 nM; TGI (SNB-75 CNS): 51.5 nM; GI50 (SK-MEL-5 melanoma): 7.75 nM; TGI (SK-MEL-5 melanoma): 55.5 nM; GI50 (PC-3 prostate): 10.5 nM; TGI (PC-3 prostate): 153 nM; GI50 (UACC-257 melanoma): 26.9 nM; TGI (UACC-257 melanoma): 80.5 nM; GI50 (SR leukemia): 0.0483 nM and 0.209 nM; TGI (SR leukemia): 4.06 nM; GI50 (SNB-19 CNS): 28 nM; TGI (SNB-19 CNS): 246 nM; GI50 (NCI-H23 lung): 0.928 nM; TGI (NCI-H23 lung): 15.1 nM; GI50 (NCI-H226 lung): 23 nM; TGI (NCI-H226 lung): 99 nM; GI50 (NCI-H460 lung): 5.73 nM; TGI (NCI-H460 lung): 166 nM; GI50 (HCC-2998 colon): 13 nM; TGI (HCC-2998 colon): 42.2 nM; GI50 (SK-OV-3 ovarian): 16.5 nM; TGI (SK-OV-3 ovarian): 718 nM; GI50 (HCT-116 colon): 2.98 nM; TGI (HCT-116 colon): 205 nM; GI50 (HOP-62 NSCLC): 9.96 nM; TGI (HOP-62 NSCLC): 59.5 nM; GI50 (A498 renal): 1.26 nM; TGI (A498 renal): 4.68 nM; GI50 (SF-539 CNS): 14.6 nM; TGI (SF-539 CNS): 52.7 nM; GI50 (OVCAR-8 ovarian): 11.4 nM; TGI (OVCAR-8 ovarian): 212 nM; GI50 (EKVX NSCLC): 4.03 nM; TGI (EKVX NSCLC): 33.6 nM; GI50 (OVCAR-4 ovarian): 53 nM; TGI (OVCAR-4 ovarian): 703 nM; GI50 (SW-620 colon): 11.7 nM; TGI (SW-620 colon): 84 nM; GI50 (UO-31 renal): 2.62 nM; TGI (UO-31 renal): 39.9 nM; GI50 (A549 NSCLC): 14.6 nM; TGI (A549 NSCLC): 414 nM; GI50 (CCRF-CEM leukemia): 2.45 nM; TGI (CCRF-CEM leukemia): 31.2 nM; GI50 (MCF7 breast): 0.944 nM; TGI (MCF7 breast): 321 nM; GI50 (OVCAR-3 ovarian): 15.5 nM; TGI (OVCAR-3 ovarian): 42.3 nM; GI50 (UACC-62 melanoma): 11.2 nM; TGI (UACC-62 melanoma): 29.6 nM; GI50 (NCI-H522 lung): 4.75 nM; TGI (NCI-H522 lung): 30 nM
